Experimental data: patent US8633166B2, “Methicillin-resistant Staphylococcus aureus active metabolites” (priority 2009, dated 2014)
≈ marks a conversion by molar mass, not a printed value.

Assays:
[1] = tested on: Staphylococcus epidermidis; assay: In vitro MIC, broth microdilution (CLSI); assay type: cell-based
Experimental: (§1) All test articles were dissolved in DMSO. Stock solutions were prepared at 40-fold the highest concentration in the test plate. The final concentration of DMSO in the test system was 2.5%.
(§2) The medium employed for the MIC assay was Mueller Hinton II Broth (MHB II-Becton Dickinson, #212322, Lot #9044411) for most of the organisms. MHB II was supplemented with 2% lysed horse blood (Cleveland Scientific Lot #22299-1) to accommodate the growth of Streptococcus pneumoniae, Streptococcus pyogenes and Streptococcus agalactiae. The media were prepared at 102.5% the normal weight to offset the dilution created by the addition of 5 μL drug solution to each well of the microdilution panels.
(§3) The MIC assay method followed the procedure described by the Clinical and Laboratory Standards Institute (see Clinical and Laboratory Standards Institute. Methods for Dilution Antimicrobial, Susceptibility Tests for Bacteria That Grow Aerobically; Approved Standard—Eighth Edition. CLSI document M07-A8 [ISBN 1-56238-689-1]. Clinical and Laboratory, Standards Institute, 940 West Valley Road, Suite 1400, Wayne, Pa. 19087-1898 USA, 2009) and employed automated liquid handlers to conduct serial dilutions and liquid transfers. Automated liquid handlers included the Multidrop 384 (Labsystems, Helsinki, Finland), Biomek 2000 and Multimek 96 (Beckman Coulter, Fullerton Calif.).
(§4) The wells of Columns 2-12 of standard 96-well microdilution plates (Falcon 3918) were filled with 150 μL of DMSO on the Multidrop 384. The drugs (300 μL) were dispensed into Column 1 of the appropriate row in these plates. These would become the mother plates from which the test plates (daughter plates) were prepared. The Biomek 2000 completed serial transfers through Column 11 in the mother plates. The wells of Column 12 contained no drug and were the organism growth control wells in the daughter plates. The daughter plates were loaded with 185 μL of the appropriate test media (described above) using the Multidrop 384. The daughter plates were prepared on the Multimek 96 instrument which transferred 5 μL of drug solution from each well of a mother plate to each corresponding well of each daughter plate in a single step. Therefore, the test agents were maintained in solution in 100% DMSO up until the point of being added to the final test medium.
(§5) Standardized inoculum of each organism was prepared per CLSI methods (See Clinical and Laboratory Standards Institute. Performance Standards for Antimicrobial Susceptibility Testing; Nineteenth Informational Supplement. CLSI document M100-S19 [ISBN 1-56238-690-5]. Clinical and Laboratory Standards Institute, 940 West Valley Road, Suite 1400, Wayne, Pa. 19087-1898 USA, 2009.). Suspensions were prepared in MHB to equal the turbidity of a 0.5 McFarland standard. The suspensions were diluted 1:9 in broth appropriate to the organism. The inoculum for each organism was dispensed into sterile reservoirs divided by width (Beckman Coulter), and the Biomek 2000 was used to inoculate the plates. Daughter plates were placed on the Biomek 2000 work surface reversed so that inoculation took place from low to high drug concentration. The Biomek 2000 delivered 10 μL of standardized inoculum into each well. This yielded a final cell concentration in the daughter plates of approximately 5×10^5 colony-forming-units/mL. Thus, the wells of the daughter plates ultimately contained 185 μL of broth, 5 μL of drug solution, and 10 μL of bacterial inoculum. The final concentration of DMSO in the assay plate was 2.5%.
(§6) Plates were stacked 3 high, covered with a lid on the top plate, placed in plastic bags, and incubated at 35° C. for approximately 18 hours for most of the isolates. The Streptococcus plates were read after 20 hours of incubation. The microplates were viewed from the bottom using a plate viewer. […] The MIC was read and recorded as the lowest concentration of drug that inhibited visible growth of the organism.

Streptococcus pneumoniae = assay: In vitro MIC, broth microdilution (CLSI); assay type: cell-based; details: MHB II with 2% lysed horse blood
Experimental: as §1, §2, §3, §4, §5, §6

Enterococcus faecalis = assay: In vitro MIC, broth microdilution (CLSI); assay type: cell-based
Experimental: as §1, §2, §3, §4, §5, §6

Streptococcus pyogenes = assay: In vitro MIC, broth microdilution (CLSI); assay type: cell-based; details: MHB II with 2% lysed horse blood
Experimental: as §1, §2, §3, §4, §5, §6

Staphylococcus aureus = assay: In vitro MIC, broth microdilution (CLSI); assay type: cell-based
Experimental: as §1, §2, §3, §4, §5, §6

Enterococcus faecium = assay: In vitro MIC, broth microdilution (CLSI); assay type: cell-based
Experimental: as §1, §2, §3, §4, §5, §6

Streptococcus agalactiae = assay: In vitro MIC, broth microdilution (CLSI); assay type: cell-based; details: MHB II with 2% lysed horse blood
Experimental: as §1, §2, §3, §4, §5, §6

streptococci = assay: In vitro MIC, streptococci; assay type: cell-based, Streptococcus; details: highest concentrations considered for MIC readings
Experimental: as §1
The medium employed for the MIC assay was Mueller Hinton II Broth (MHB II-Becton Dickinson, #212322, Lot #9044411) for most of the organisms. MHB II was supplemented with 2% lysed horse blood (Cleveland Scientific Lot #22299-1) to accommodate the growth of Streptococcus pneumoniae, Streptococcus pyogenes and Streptococcus agalactiae. The media were prepared at 102.5% the normal weight to offset the dilution created by the addition of 5 μL drug solution to each well of the microdilution panels. […]
Plates were stacked 3 high, covered with a lid on the top plate, placed in plastic bags, and incubated at 35° C. for approximately 18 hours for most of the isolates. The Streptococcus plates were read after 20 hours of incubation. […] The MIC was read and recorded as the lowest concentration of drug that inhibited visible growth of the organism.

[2] = Maximum tolerated dose, preliminary experiment; assay type: in vivo, Mice (CD-1); details: 20 mg/kg IP for two days
Experimental: The number of MRSA isolated from vancomycin treated animals was 2.2×10^7 g of tissue, a reduction of 72% compared to vehicle control. Similarly, the number of MRSA recovered after treatment with compound (I) at 3 mg/kg and 15 mg/kg were 2.6×10^7 and 1.8×10^7 respectively, which correspond to a reduction of 67% and 78% as compared to vehicle control. […] To determine the maximum tolerated dose in the preliminary experiment, a maximum of 20 mg/kg of compound (1) was giving IP for two days.

For C[C@@H]1O[C@@H](Oc2c(-c3ccc(O)cc3)oc3cc(O)cc(O)c3c2=O)[C@H](OC(=O)/C=C/c2ccc(O)cc2)[C@H](OC(=O)/C=C/c2ccc(O)cc2)[C@H]1O [Compound 1, kaempferol 3-O-α-L-(2″,3″-di-E-p-coumaroyl)rhamnoside], the MIC ([1]; MMX 762, MRSE, CHP) was over 8 mg/L, the MIC ([1]; MMX 826, MRSE, UCLA) was 8 mg/L (≈ 11 µM) and the MIC ([1]; MMX 835, MSSE, UCLA) was 4 mg/L (≈ 5.52 µM). For the same compound, the MIC ([1]; MMX 3703, MSSE, CHP) was 4 mg/L (≈ 5.52 µM), the MIC ([1]; MMX 3752, MRSE, Mt. Sinai) was over 8 mg/L and the MIC ([1]; MMX 3763, MSSE, Mt. Sinai) was 4 mg/L (≈ 5.52 µM). For the same compound, the MIC (Streptococcus pneumoniae; MMX 748, PRSP, CHP) was over 16 mg/L, the MIC (Streptococcus pneumoniae; MMX 866, PSSP, CHP) was over 16 mg/L and the MIC (Streptococcus pneumoniae; MMX 1195, CLSI QC, ATCC 49619) was over 16 mg/L. The MIC (Streptococcus pneumoniae; MMX 3130, PSSP, UCLA) was over 16 mg/L, the MIC (Streptococcus pneumoniae; MMX 3160, PRSP, UCLA) was over 16 mg/L and the MIC (Streptococcus pneumoniae; MMX 3937, PSSP, Mt. Sinai) was over 16 mg/L. For the same compound, the MIC (Streptococcus pneumoniae; MMX 3953, PRSP, Mt. Sinai) was over 16 mg/L, the MIC (Enterococcus faecalis; MMX 101, CLSI QC, ATCC 29212) was 8 mg/L (≈ 11 µM) and the MIC (Enterococcus faecalis; MMX 742, VSE, CHP) was over 8 mg/L. The MIC (Enterococcus faecalis; MMX 3199, VSE, UCLA) was 4 mg/L (≈ 5.52 µM), the MIC (Enterococcus faecalis; MMX 3821, VRE, Mt. Sinai) was 4 mg/L (≈ 5.52 µM) and the MIC (Enterococcus faecalis; MMX 3896, VSE, Mt. Sinai) was 4 mg/L (≈ 5.52 µM). It also gave an MIC (Enterococcus faecalis; MMX 4131, VRE, CHP) of 1 mg/L (≈ 1.38 µM), an MIC (Enterococcus faecalis; MMX 4160, VRE, UCLA) of 4 mg/L (≈ 5.52 µM) and an MIC (Streptococcus pyogenes; MMX 718, CHP) of over 16 mg/L. For the same compound, the MIC (Streptococcus pyogenes; MMX 2572, UCLA) was over 16 mg/L, the MIC (Streptococcus pyogenes; MMX 3928, Mt. Sinai) was over 16 mg/L and the MIC (Staphylococcus aureus; MMX 100, CLSI QC, ATCC 29213) was over 8 mg/L. The MIC (Staphylococcus aureus; MMX 753, MSSA, CHP) was over 8 mg/L, the MIC (Staphylococcus aureus; MMX 758, MRSA, CHP) was over 8 mg/L and the MIC (Staphylococcus aureus; MMX 2055, MRSA, UCLA) was over 8 mg/L. For the same compound, the MIC (Staphylococcus aureus; MMX 2063, MSSA, UCLA) was over 8 mg/L, the MIC (Staphylococcus aureus; MMX 3856, MSSA, Mt. Sinai) was over 8 mg/L and the MIC (Staphylococcus aureus; MMX 3894, MRSA, Mt. Sinai) was over 8 mg/L. The MIC (Enterococcus faecium; MMX 0799, VSE, CHP) was over 8 mg/L, the MIC (Enterococcus faecium; MMX 0845, VSE, UCLA) was 1 mg/L (≈ 1.38 µM) and the MIC (Enterococcus faecium; MMX 1238, VRE, Mt. Sinai) was 0.5 mg/L (≈ 0.69 µM). It also gave an MIC (Enterococcus faecium; MMX 1259, VSE, Mt. Sinai) of over 8 mg/L, an MIC (Enterococcus faecium; MMX 4024, VRE, CHP) of over 8 mg/L and an MIC (Enterococcus faecium; MMX 4048, VRE, UCLA) of over 8 mg/L. For the same compound, the MIC (Streptococcus agalactiae; MMX 3743, Mt. Sinai) was over 16 mg/L, the MIC (Streptococcus agalactiae; MMX 4093, UCLA) was over 16 mg/L and the MIC (Streptococcus agalactiae; MMX 4106, CHP) was over 16 mg/L. The “activity against the streptococci” value (streptococci) was “Neither compound was active” and the “acute toxicity at maximum dose given” value [2] was “No untoward effect”.
